Literature values, collected in US5607937A, “Piperazides of substituted phenylalanine derivatives as thrombin inhibitors” (priority 1993, dated 1997).

Key:
thrombin = thrombin (Homo sapiens, UniProt P00734); settings: literature; cited from earlier work
trypsin = biological target: T1, trypsin (Bos taurus, UniProt P00760); settings: literature; cited from earlier work
T1 sequence (P00760 24-246): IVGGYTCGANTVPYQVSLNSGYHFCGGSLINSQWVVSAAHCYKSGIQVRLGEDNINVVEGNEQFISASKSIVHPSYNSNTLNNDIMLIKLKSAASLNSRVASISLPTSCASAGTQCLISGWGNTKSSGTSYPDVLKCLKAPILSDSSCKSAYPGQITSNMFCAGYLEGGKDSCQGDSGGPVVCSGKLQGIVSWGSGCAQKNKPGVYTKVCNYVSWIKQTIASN

CC(C)(C)OC(=O)NC(Cc1ccccc1)C(=O)N1CCCC1C(=O)NC(CCCNC(=N)N)B1OC2CC3CC(C3(C)C)C2(C)O1 [Boc-D-Phe-Pro-Boro-Arg-C10 H16]
thrombin inhibition in words (thrombin): inhibited in a time-dependent reaction | trypsin-inhibiting activity in words (trypsin): inhibited in a time-dependent reaction
